Values of other authors, collected in US4795743A, “2'-deamino-2'-hydroxyistamycin Bo derivatives of low toxicity” (Zaidan Hojin Biseibutsu Kagaku Kenkyu Kai, priority 1986, dated 1989).

Tested on: resistant bacteria, Pseudomonas aeruginosa, resistant strains of gram-negative and gram-positive bacteria
Conditions: background, earlier filings; cited from earlier work

Q: For CNCC1CCC(N)C(OC2C(N)CC(O)C(N(C)C(=O)CN)C2O)O1 (stereo not shown) [3-O-demethylistamycin B], which antibacterial activity is on record?
A: active against resistant bacteria, Pseudomonas aeruginosa and also against a variety of resistant strains of gram-negative and gram-positive bacteria
